The source of these data is patent publication US20090142330A1, “Use of inactive-plasmin to treat chronic inflammatory disease and tumors” (The Government of the United States of America as …, priority 2007, published 2009).

The test system of test [1] is MMP-1 production by monocytes. The test can be described thus: MMP-1 protein in monocyte conditioned media, Western blot. Format: cell-based, human. Conditions: for effect on HMW-uPA enhancement of MMP-1 / effect on plasmin enhancement of MMP-1 / effect on LPS-induced MMP-1 production: monocytes preincubated 30 min with agent; for effect on HMW-uPA enhancement of MMP-1: then LPS plus HMW-uPA; for effect on plasmin enhancement of MMP-1: then LPS plus plasmin; for effect on LPS-induced MMP-1 production: then LPS. The source says: Reagents. High molecular weight urokinase plasminogen activator (HMW-uPA), low molecular weight uPA (LMW-uPA), amino-terminal fragment-uPA (ATF-uPA) and α2-antiplasmin were obtained from American Diagnostica Inc. (Stamford, Conn.). […] LPS Escherichia coli 05:B55 was purchased from Sigma-Aldrich (St. Louis, Mo.). ERK1/2/phospho-ERK1/2 and p38/phospho-p38 antibodies were from Cell Signaling Technology (Beverly, Mass.). MMP-1 antibodies used were rabbit polyclonal antibodies against MMP-1 (provided by Dr. Henning Birkedal-Hansen, NIDCR/NIH) and a mouse anti-human MMP-1 monoclonal antibody (Chemicon International, Inc., Temecula, Calif.). Rabbit anti-COX-2 antibodies were obtained from Cayman Chemical Company (Ann Arbor, Mich.) and mouse anti-β-actin antibodies were from Chemicon International, Inc., Temecula, Calif.). Purification and culture of human monocytes. Human peripheral blood cells were obtained by leukapheresis of non-disease subjects. The monocyte fraction was purified by counter-flow centrifugal elutriation as previously described (Wahl et al., Cell Immunol. 85: 373-383, 1984; and Wahl et al., “In Current Protocols in Immunology,” eds. John Wiley & Sons, Inc. NY. Vol. 2: 7.6A.1-7.6A.10., 2005) and contained greater than 90% monocytes as determined by morphology and flow cytometry. Monocytes were cultured in serum-free Dulbecco Modified Eagle's Medium (DMEM; Cambrex, Walkersville, Md.) supplemented with 2 mM L-glutamine (Mediatech, Herndon, Va.) and 10 μg/ml gentamycin (Cambrex, Walkersville, Md.). Western blot analysis of MMP-1, MAPKs and COX-2. For MMP-1 determination, purified monocytes were cultured at a density of 5×10^6/ml of DMEM in 12 well polystyrene plates (Corning Incorporated Life Sciences, Lowell, Mass.). After 36 to 48 hours of treatment with reagents, the conditioned media were centrifuged and collected. Bovine serum albumin (BSA; 40 μg/ml) was added to the culture supernatants prior to the precipitation of the proteins with cold ethanol (final concentration, 60%) for at least 15 min at −70° C. The proteins were pelleted by microcentrifuging at 20,800×g for 12 min, washed with ethanol, and lyophilized by rotary evaporation. The lyophilized proteins were resuspended in sodium dodecyl sulfate (SDS)-Laemmli buffer [500 mM Tris-HCl (pH 6.8)/10% SDS/0.01% bromophenol-blue/20% glycerol], reduced with 5% β-mercaptoethanol, heated for 4 min at 100° C., and electrophoresed on a 10 or 12% Tris-glycine gel in SDS running buffer [25 mM Tris-HCl (pH 8.3)/192 mM glycine/[…]]. The proteins were transferred onto 0.45 μm nitrocellulose in a buffer containing 25 mM Tris-HCl (pH 8.3)/192 mM glycine/20% methanol and blocked with 50 mM Tris-HCl (pH 7.5)/150 mM NaCl (TBS) containing 5% nonfat dry milk for at least 1 hour. The blots were then incubated overnight with antibodies against MMP-1.
Western blots for MMP-1, MAPKs and COX-2 were incubated overnight with primary antibodies, washed and analyzed by the addition of Alexa Fluor 680 goat anti-rabbit or Alexa Fluor 750 goat anti-mouse antibodies (Molecular Probes® Inc., Eugene, Oreg.) and the infrared fluorescence detected with the Odyssey infrared imaging system (LI-COR, Lincoln, Nebr.). Densitometry analysis of the bands on the Western blots was determined with the LI-COR software analysis program or the ImageQuant software analysis program (Amersham Biosciences, Piscataway, N.J.).
Background: In western blotting, separated proteins are transferred to a membrane and probed.

The next test deals with T1, plasmin (Homo sapiens, UniProt P00747).
T1 construct: purchased Sigma-Aldrich
The test is described as follows: Cell free plasmin activity assay (SPECTROZYME PL). Format: biochemical. The following applies: compared with plasmin alone, FIG. 6B. How it is done:
(§1) Plasmin activity assay. Plasmin activity was determined with the SPECTROZYME PL kit (American Diagnostica Inc., Stamford, Conn.) which utilizes the chromogenic substrate H-D-norleucyl-hexahydrotyrosol-lysine-para-nitroanilide diacetate. For detection of cell-associated plasmin activity, monocytes were cultured at 1×10^6/well in Hanks Balanced Solution containing calcium and magnesium (Hyclone, Logan, Utah) with the plasmin substrate. Kinetic absorbance readings were measured at 405 nm. RT-PCR. Total cellular RNA was extracted with the RNeasy Mini Kit (QIAGEN® Inc., Valencia, Calif.) 8 hours after stimulation of monocytes with LPS. Transcript levels of MMP-1 were determined using semiquantitative reverse transcriptase-polymerase chain reaction (RT-PCR) with GADPH as an internal control. […] The amplified DNA was separated by 1.7% agarose gel electrophoresis, stained with SYTO 60 red fluorescent nucleic acid stain (Molecular Probes®, Eugene, Oreg.), and the intensity of the stained bands was analyzed with an infrared imaging system. […] FITC-conjugated BSA, plasmin (2.5 μg in 10 μl) or anti-human antibodies (1-2.5 μg/10 μl) then were added, respectively, incubated for 30 min and washed and analyzed by the FACSCalibur system (Becton Dickinson Biosciences, Franklin Lakes, N.J.). […] Flow cytometry results were analyzed by CELLQuest software (Becton Dickinson Biosciences, Franklin Lakes, N.J.). […]

In test [2] the target is T2, annexin A2 heterotetramer (annexin A2 p36 / S100A10 p11) on monocytes (Homo sapiens, UniProt P07355+P60903).
T2 construct: Purified human monocytes were fixed and permeablized; endogenous in cells; host or cells: purified human peripheral blood monocytes, fixed and permeabilized
The test is described as follows: Binding of FITC-labeled plasmin to monocytes, flow cytometry. The following applies: preincubation of monocytes 30 min with agent before plasmin-FITC. The method, then: as §1
In general terms: Flow cytometry measures light scatter and fluorescence of single cells or particles in a stream.

For the next test, the target named is T3, annexin A2 on monocytes (Homo sapiens, UniProt P07355).
T3 construct: Purified human monocytes were fixed and permeablized; endogenous in cells; host or cells: purified human peripheral blood monocytes, fixed and permeabilized
The test can be described thus: Binding of goat anti-human annexin A2 antibodies to monocytes, flow cytometry. The following applies: pre-treated with agent 30 minutes; FIG. 6D. The method, then: as §1

T2 sequence (P07355 2-339 limits assumed): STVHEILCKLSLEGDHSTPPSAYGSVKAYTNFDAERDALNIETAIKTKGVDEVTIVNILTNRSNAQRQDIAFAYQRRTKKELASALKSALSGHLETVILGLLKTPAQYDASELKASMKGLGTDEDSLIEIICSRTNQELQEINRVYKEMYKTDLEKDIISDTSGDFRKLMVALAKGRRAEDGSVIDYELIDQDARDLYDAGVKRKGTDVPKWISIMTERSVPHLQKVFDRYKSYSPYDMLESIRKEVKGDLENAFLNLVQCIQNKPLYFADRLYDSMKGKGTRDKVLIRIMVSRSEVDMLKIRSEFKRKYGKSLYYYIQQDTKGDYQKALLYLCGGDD
T2 sequence (P60903 2-97 limits assumed): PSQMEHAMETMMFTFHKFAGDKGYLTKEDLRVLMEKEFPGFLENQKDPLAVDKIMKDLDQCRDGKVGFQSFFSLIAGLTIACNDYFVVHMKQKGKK
T3 sequence (P07355 whole entry): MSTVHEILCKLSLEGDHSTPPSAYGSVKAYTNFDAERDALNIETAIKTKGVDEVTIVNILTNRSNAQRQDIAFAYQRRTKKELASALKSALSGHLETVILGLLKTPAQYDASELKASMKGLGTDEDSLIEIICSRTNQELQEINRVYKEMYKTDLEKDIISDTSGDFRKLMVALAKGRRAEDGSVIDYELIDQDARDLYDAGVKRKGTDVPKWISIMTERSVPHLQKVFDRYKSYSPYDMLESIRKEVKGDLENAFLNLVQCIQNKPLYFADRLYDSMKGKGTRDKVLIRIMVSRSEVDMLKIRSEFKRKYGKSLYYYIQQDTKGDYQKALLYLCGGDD

For the molecule `COc1cccc(-c2cc(=O)c3ccccc3o2)c1N` [PD98059], in test [1], the “effect on HMW-uPA enhancement of MMP-1” value is on record as “suppressed the enhancement” and the “effect on plasmin enhancement of MMP-1” value was “suppressed the enhancement”.
Regarding `CCCCC[C@H](O)/C=C/[C@H]1[C@H](O)CC(=O)[C@@H]1C/C=C\CCCC(=O)O` [PGE2, prostaglandin-E2], the “restoration of MMP-1 after indomethacin inhibition” value in test [1] (PGE2 1 μM added to indomethacin-treated monocytes, FIG. 4C) is on record as “restored, in part”.
As for `C[S+]([O-])c1ccc(-c2nc(-c3ccncc3)c(-c3ccc(F)cc3)[nH]2)cc1` (stereo not shown) [SB203580], in test [1], the “effect on HMW-uPA enhancement of MMP-1” value is “suppressed the enhancement” and the “effect on plasmin enhancement of MMP-1” value is reported as “suppressed the enhancement”.
In the case of `COc1ccc2c(c1)c(CC(=O)O)c(C)n2C(=O)c1ccc(Cl)cc1` [indomethacin], in test [1], the “effect on LPS-induced MMP-1 production” value was “inhibited”, the “effect on HMW-uPA enhancement of MMP-1” value was “inhibited” and the “effect on plasmin enhancement of MMP-1” value is given as “inhibited”.

B1: inactive plasmin: plasmin in which the catalytic site had been irreversibly blocked with a peptide inhibitor; from Molecular Innovations, Inc. (protein)
chain: KVYLSECKTGNGKNYRGTMSKTKNGITCQKWSSTSPHRPRFSPATHPSEGLEENYCRNPDNDPQGPWCYTTDPEKRYDYCDILECEEECMHCSGENYDGKISKTMSGLECQAWDSQSPHAHGYIPSKFPNKNLKKNYCRNPDRELRPWCFTTDPNKRWELCDIPRCTTPPPSSGPTYQCLKGTGENYRGNVAVTVSGHTCQHWSAQTPHTHNRTPENFPCKNLDENYCRNPDGKRAPWCHTTNSQVRWEYCKIPSCDSSPVSTEQLAPTAPPELTPVVQDCYHGDGQSYRGTSSTTTTGKKCQSWSSMTPHRHQKTPENYPNAGLTMNYCRNPDADKGPWCFTTDPSVRWEYCNLKKCSGTEASVVAPPPVVLLPDVETPSEEDCMFGNGKGYRGKRATTVTGTPCQDWAAQEPHRHSIFTPETNPRAGLEKNYCRNPDGDVGGPWCYTTNPRKLYDYCDVPQCAAPSFDCGKPQVEPKKCPGRVVGGCVAHPHSWPWQVSLRTRFGMHFCGGTLISPEWVLTAAHCLEKSPRPSSYKVILGAHQEVNLEPHVQEIEVSRLFLEPTRKDIALLKLSSPAVITDKVIPACLPSPNYVVADRTECFITGWGETQGTFGAGLLKEAQLPVIENKVCNRYEFLNGRVQSTELCAGHLAGGTDSCQGDSGGPLVCFEKDKYILQGVTSWGLGCARPNKPGVYVRVSRFVTWIEGVMRNN
Turning to B1, in test [1], the “effect on LPS-induced MMP-1 production” value was “inhibited the production of MMP-1” and the “effect on plasmin enhancement of MMP-1” value was “inhibited the production of MMP-1”. Further, the “plasmin activity of inactive plasmin combined with plasmin” value with plasmin is “same activity as plasmin alone”. In addition, the “binding of FITC-labeled plasmin to monocytes” value in test [2] is “blocked the binding”. For the same molecule, in the test with annexin A2 on monocytes, the “binding of antibodies against annexin A2 to monocytes” value is reported as “blocked the binding”.
